SMILES strings stand for the structures.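 Cultured in 96-well plates, cells were exposed to test compound for 48 hours across five concentrations. TGI marks complete inhibition of growth.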 A value given as a limit tells only on which side of the number the result lay.

Test systems include RXF 393 renal; SF-539 CNS; TK-10 renal; RPMI-8226 leukemia; SF-268 CNS; MDA-MB-231 breast; CCRF-CEM leukemia; SNB-19 CNS; PC-3 prostate; KM12 colon; IGROV1 ovarian; K-562 leukemia; HCT-116 colon; HCT-15 colon; DU-145 prostate; NCI-H23 lung; SK-OV-3 ovarian; SF-295 CNS.
What all share (assay): NCI-60 cell line screen, 48 h

Regarding `O=c1[nH]c(=O)n(COCc2ccccc2)c2ccsc12`, the TGI in the assay on RXF 393 renal, in the assay with SF-539 CNS, in the assay with TK-10 renal, with RPMI-8226 leukemia, in the assay with SF-268 CNS and with MDA-MB-231 breast was > 100 µM in each case. For the same compound, the TGI in the assay on CCRF-CEM leukemia, in the assay on SNB-19 CNS, in the assay with PC-3 prostate, with KM12 colon, with IGROV1 ovarian and in the assay on K-562 leukemia was > 100 µM each time. The TGI in the assay with HCT-116 colon, with HCT-15 colon and with DU-145 prostate was > 100 µM throughout.
`O=c1[nH]c2ccccc2c(=O)n1/N=C/c1ccc(O)cc1`: the TGI in the assay on SF-539 CNS, in the assay on NCI-H23 lung, with TK-10 renal, in the assay on SK-OV-3 ovarian, in the assay with RPMI-8226 leukemia and in the assay on SF-268 CNS was > 100 µM each time. The TGI with MDA-MB-231 breast, with CCRF-CEM leukemia, with SNB-19 CNS, in the assay with SF-295 CNS, with PC-3 prostate and in the assay with KM12 colon was > 100 µM throughout. Besides, the TGI in the assay on IGROV1 ovarian, with K-562 leukemia, in the assay with HCT-116 colon, with HCT-15 colon and in the assay on DU-145 prostate was > 100 µM throughout.
With `CC1(C)O[C@@H]([C@H](O)CO)[C@H](O)[C@@H](C2SCCCS2)O1`, the TGI in the assay on RXF 393 renal, in the assay on SF-539 CNS, with NCI-H23 lung, in the assay on TK-10 renal, in the assay on SK-OV-3 ovarian and with RPMI-8226 leukemia was > 100 µM in each case. The TGI with SF-268 CNS, in the assay on MDA-MB-231 breast, with SNB-19 CNS, in the assay on SF-295 CNS, in the assay on PC-3 prostate and in the assay with KM12 colon was > 100 µM each time. The TGI in the assay on IGROV1 ovarian, in the assay with HCT-116 colon, with HCT-15 colon and with DU-145 prostate was > 100 µM throughout.
As for `COC(=O)/C(C#N)=C(\Nc1ccccc1)N1CCOCC1`, the TGI with RXF 393 renal, in the assay with SF-539 CNS, in the assay with NCI-H23 lung, with TK-10 renal, in the assay with SK-OV-3 ovarian and with RPMI-8226 leukemia was > 100 µM in each case. Also, the TGI in the assay with SF-268 CNS, in the assay on MDA-MB-231 breast, with SNB-19 CNS, in the assay on SF-295 CNS, in the assay on PC-3 prostate and with IGROV1 ovarian was > 100 µM each time. The TGI in the assay with K-562 leukemia, in the assay on HCT-116 colon, in the assay with HCT-15 colon and in the assay on DU-145 prostate was > 100 µM throughout.
As for `Cc1cn([C@@H]2C[C@@H]2CO)c(=O)[nH]c1=O`, the TGI in the assay with RXF 393 renal, with SF-539 CNS, in the assay on NCI-H23 lung, in the assay with TK-10 renal, in the assay on RPMI-8226 leukemia and in the assay with SF-268 CNS was > 100 µM throughout. Also, the TGI in the assay with MDA-MB-231 breast, in the assay with CCRF-CEM leukemia, in the assay on SNB-19 CNS, with PC-3 prostate, in the assay with KM12 colon and with IGROV1 ovarian was > 100 µM each time. For the same compound, the TGI in the assay with K-562 leukemia, in the assay on HCT-116 colon, in the assay on HCT-15 colon and in the assay with DU-145 prostate was > 100 µM in each case.
On to `CCc1ccccc1N=NC(=O)NNc1ccccc1CC`, for which the TGI in the assay with NCI-H23 lung was found to be 39.8 µM; in the assay with TK-10 renal, 50.1 µM; in the assay on RPMI-8226 leukemia, 77.3 µM; with SF-268 CNS, 35.4 µM; in the assay with MDA-MB-231 breast it was 50.1 µM; in the assay on CCRF-CEM leukemia, 65.6 µM. Further, the TGI with SNB-19 CNS is 95 µM; with PC-3 prostate, 37.5 µM; in the assay on IGROV1 ovarian, 26 µM; with K-562 leukemia it was 68.5 µM; with HCT-116 colon, 29 µM; in the assay on HCT-15 colon, 38.1 µM. This compound also came in with a TGI with DU-145 prostate of 33.6 µM.
For the compound `Cc1nc(N)c(N2CCN(C(=O)O)CC2)c(=O)[nH]1`, the TGI in the assay with SF-539 CNS, with NCI-H23 lung, in the assay on TK-10 renal, in the assay with RPMI-8226 leukemia, with SF-268 CNS and in the assay with MDA-MB-231 breast was > 100 µM each time. In addition, the TGI with CCRF-CEM leukemia, in the assay with SNB-19 CNS, in the assay with SF-295 CNS, in the assay on PC-3 prostate, in the assay on KM12 colon and with K-562 leukemia was > 100 µM in each case. Also, the TGI in the assay with HCT-116 colon, in the assay on HCT-15 colon and in the assay on DU-145 prostate was > 100 µM throughout.
With `COc1ccc(N=N/C(=N/NC(=O)c2ccc(C)cc2)c2ccc(N(CCC#N)CCC#N)cc2OC)cc1`, the TGI with RXF 393 renal, in the assay with NCI-H23 lung, with TK-10 renal, in the assay with SK-OV-3 ovarian, with SF-268 CNS and in the assay on MDA-MB-231 breast was > 100 µM in each case. Besides, the TGI in the assay on SNB-19 CNS, in the assay with SF-295 CNS, in the assay with PC-3 prostate, in the assay with KM12 colon, with IGROV1 ovarian and with K-562 leukemia was > 100 µM throughout. The TGI with HCT-116 colon, in the assay with HCT-15 colon and in the assay on DU-145 prostate was > 100 µM throughout.
For `C[C@@H](c1ccccc1)n1c(N)c(-c2ccccn2)c2ccc([N+](=O)[O-])cc2c1=O`, the TGI in the assay with NCI-H23 lung, in the assay on TK-10 renal, in the assay on SF-268 CNS, in the assay with MDA-MB-231 breast, with CCRF-CEM leukemia and in the assay on SNB-19 CNS was > 100 µM in each case. Further, the TGI in the assay with PC-3 prostate, with KM12 colon, in the assay with HCT-116 colon, with HCT-15 colon and in the assay with DU-145 prostate was > 100 µM each time.

The values are drawn from PubChem BioAssay (NCI).
